Results from paper PMC9376946, “Peptide-RNA Coacervates as a Cradle for the Evolution of Folded Domains” (Journal of the American Chemical Society, 2022).
“And” between values parts separate entries of the source, which are not always exact repeats. Identical values can stand only once.

Tested on: polyU
Experiment: DEER of peptides in the presence of polyU
Assay type: binding
Conditions: for local concentration of detected spins: from DEER background decay, calibration curve
Procedure: For pulse EPR measurements, 5–6 μL of peptide in D2O with 20% glycerol-d8 was introduced into a quartz capillary of 0.9 mm i.d. and 1.1 mm o.d. and sealed with Critoseal at one end. The samples with polyU (and thus, the potential for coacervates) were flash-frozen in liquid nitrogen after incubating at room temperature for 15–20 min. Samples without polyU were directly inserted into the spectrometer at 25 K.
Pulse EPR measurements were carried out at the W band (94.9 GHz) on a home-built spectrometer at 25 K.[22]−[24] Echo intensities were measured with a Hahn echo sequence (π/2νobs – τ – πνobs – τ – echo) using π/2 and π pulses of 20–25 ns and 40–50 ns, respectively, and τ = 500 ns. Echo decays were measured under the same conditions with an initial τ value of 500 ns. DEER measurements were recorded using the four-pulse DEER sequence (π/2νobs – τ1 – πνobs – (τ1 + t) – πνpump – (τ2-t) – πνobs – τ2 – echo)[25],[26] with a chirp pump pulse[23] using eight-step phase cycling and monitoring the echo intensity as a function of increasing t. The maximum intensity of the nitroxide spectrum was set to 94.9 GHz, the observer pulses were set to 94.85 GHz, and the π/2 and π pulse durations were 35–40 and 70–80 ns. The chirp pump pulse frequency was 94.88–94.98 GHz with a duration of 128 ns. The repetition time was 10 ms. The samples without polyU and a concentration above 50 μM were averaged for 1–5 h. All the samples with a concentration ≤50 μM and all the samples in the presence of polyU were averaged for 6–14 h. The DEER data were analyzed using the DeerAnalysis 2018[27] program with Tikhonov regularization[28] and also verified with DEERNet.[29] For DeerAnalysis, the background was fitted with a homogenous three-dimensional distribution. The calculated distance distributions were obtained from mtsslSuite[30] using maleimide TEMPO (M-TEMPO) as the ligand, and 200 rotamer conformations were generated using clash treatment set to “loose”.
We carried out DEER measurements on the series of samples with 150 μM PA-12 and varying amounts of polyU (Figure 5A). DEER traces were analyzed in terms of several parameters: (i) the modulation depth, Δ, which gives information about the amount of dimers present; (ii) the slope of the background decay, which gives information on the average local concentration of the observed spins;[36],[40] and (iii) the SNR, which indicates how many spins were observed. […] The decrease in the background decay slope and SNR are consistent with the observed reduction in echo intensity (Figure 4A). We therefore conclude that the observed DEER modulation arose from the unbound PA-12 dimers, whereas the polyU-bound PA-12 could not be detected, as discussed in the description of the echo decays. As the polyU concentration increases, the PA-12 concentration in the dispersed phase decreases and therefore the dimer population decreases as well (eq 1), ultimately resulting in the disappearance of the modulation at about 0.5 mg/mL polyU.
We summarized our experimental observations in Figure 5B, where we plot the decrease degree (in %) in the background decay, the echo intensity, and the modulation depth as a function of polyU concentration. For all parameters, the graphs show a similar linear behavior in the high PA/polyU regime below 0.5 mg/mL polyU. […] At 0.5 mg/mL polyU, an inflection point is detected: Above 0.5 mg/mL polyU, population II reaches a plateau and we have a small gain in echo intensity and background decay, but a large gain in modulation depth. From this series of experiments, we conclude that PA bound to polyU has restricted motion and that dimers of PA exist also when bound to polyU within the coacervate. We determined the local concentration of the spins contributing to the DEER traces in the PA/polyU mixtures from a calibration curve generated from the background decay slopes of the DEER data of PA-12 in the absence of polyU (Figure S10D), and the results are given in Table 2. […]

RIRRASVEELTCVPGIGPRLARRILERLA [PA-12, Precursor-Arg peptide in which position 12 has been modified with a cysteine and attached to an M-TEMPO spin label]
maximum modulation depth corrected for free PA (30 μM PA-12, 1 mg/mL polyU, corrected for 40% component I): 9.5%
DEER modulation depth (Δ) with polyU (30 μM PA-12, 1 mg/mL polyU, local concentration 25 μM): 5.7%
DEER modulation depth with polyU (in words) (100 μM PA-12, 2 mg/mL polyU): higher modulation depth than the sample with 1 mg/mL polyU
DEER modulation with polyU (in words) (150 μM PA-12, 0.5 mg/mL polyU): modulation could no longer be detected
DEER modulation depth (Δ) with polyU (150 μM PA-12, 1 mg/mL polyU): 2%
DEER modulation with polyU (in words) (150 μM PA-12, 1 mg/mL polyU): modulation reappeared again
local concentration of detected spins (PA-12 30 μM / polyU 1 mg/mL): 25 µM and 25 ± 2 µM
local concentration of detected spins (PA-12 100 μM / polyU 1 mg/mL): 48 ± 4.5 µM
local concentration of detected spins (PA-12 100 μM / polyU 2 mg/mL): 53 ± 5 µM
local concentration of detected spins (PA-12 150 μM / polyU 0.1 mg/mL): 91 ± 8 µM
local concentration of detected spins (PA-12 150 μM / polyU 0.2 mg/mL): 75 ± 7 µM
local concentration of detected spins (PA-12 150 μM / polyU 0.35 mg/mL): 45 ± 4 µM
local concentration of detected spins (PA-12 150 μM / polyU 0.5 mg/mL): 2.3 µM and 2.3 ± 2 µM
local concentration of detected spins (PA-12 150 μM / polyU 1 mg/mL): 23 µM and 23 ± 2 µM
